pIC50: −log10 of the molar value.
Target: human PCSK9 (Homo sapiens, UniProt Q8NBP7)
Assay: PCSK9 ligand binding TR-FRET assay (interference with binding of human PCSK9 to human LDLR)
Details: for Max % inhibition: PCSK9 FRET assay, efficacy (Amax), 100% = 1 uM unlabeled human PCSK9, 0% = DMSO; for pIC50: TR-FRET, human PCSK9 Alexa Fluor 647 / human LDLR extracellular domain-Europium Kryptate, read-out: PCSK9 FRET Assay IC50
Summary of the method: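 Threefold compound dilutions were pre-incubated 30 min with PCSK9, after which 4 nM Europium Kryptate-tagged human LDLR ectodomain was added for a further 2 h.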

human PCSK9, sequence (Q8NBP7 153-692): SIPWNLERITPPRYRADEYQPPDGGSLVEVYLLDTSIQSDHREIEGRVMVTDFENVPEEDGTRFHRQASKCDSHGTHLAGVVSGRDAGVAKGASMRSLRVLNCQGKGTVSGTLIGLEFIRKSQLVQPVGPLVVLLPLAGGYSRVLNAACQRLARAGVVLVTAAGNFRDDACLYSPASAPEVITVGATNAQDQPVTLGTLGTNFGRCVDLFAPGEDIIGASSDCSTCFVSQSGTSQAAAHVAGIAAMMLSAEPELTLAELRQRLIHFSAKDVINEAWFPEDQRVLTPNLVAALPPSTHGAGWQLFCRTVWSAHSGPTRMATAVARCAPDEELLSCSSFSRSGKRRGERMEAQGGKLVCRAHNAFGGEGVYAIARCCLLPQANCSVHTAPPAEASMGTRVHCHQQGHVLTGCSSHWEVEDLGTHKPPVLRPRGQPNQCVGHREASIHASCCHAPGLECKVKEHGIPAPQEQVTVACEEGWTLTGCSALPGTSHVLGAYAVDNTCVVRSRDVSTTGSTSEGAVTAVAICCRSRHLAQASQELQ
human PCSK9, sequence (Q8NBP7 31-152 partner limits assumed): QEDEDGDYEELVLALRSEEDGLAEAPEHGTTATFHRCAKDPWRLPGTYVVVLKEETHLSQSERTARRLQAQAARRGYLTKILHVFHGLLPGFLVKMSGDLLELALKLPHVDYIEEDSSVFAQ

| SMILES | Max % inhibition [%] | pIC50 |
| --- | --- | --- |
| CCC(O)c1ncc(-c2ccc(Oc3cc(Cl)ccc3CN3C(=O)C[C@@H](Cc4ccccc4)C(=O)N(C)[C@@H](C)CNC(=O)C[C@H](Cc4ccc(Cl)cc4)N(C)C(=O)[C@H](COC)NC(=O)[C@@H]3C)cc2)n1C (stereo partly drawn) [Compound 151, (2S,5S,8S,13S,16R)-16-benzyl-1-(4-chloro-2-(4-(2-(1-hydroxypropyl)-1-methyl-1H-imidazol-5-yl)phenoxy)benzyl)-8-(4-chlorobenzyl)-5-(methoxymethyl)-2,7,13,14-tetramethyl-1,4,7,11,14-pentaazacyclooctadecane-3,6,10,15,18-pentaone] | 64.23 | 8.06 |
| COC[C@@H]1NC(=O)[C@H](C)N(Cc2ccc(Cl)cc2Oc2ccc(-c3cnc([C@@H](C)N4CCCC4)n3C)cc2)C(=O)C[C@@H](Cc2ccccc2)C(=O)N(C)[C@H]2CCCC[C@@H]2NC(=O)C[C@H](Cc2ccc(Cl)cc2)N(C)C1=O [Compound 152, (4S,7S,10S,14R,16aS,20aS)-14-benzyl-11-(4-chloro-2-(4-(1-methyl-2-((R)-1-(pyrrolidin-1-yl)ethyl)-1H-imidazol-5-yl)phenoxy)benzyl)-4-(4-chlorobenzyl)-7-(methoxymethyl)-5,10,16-trimethylhexadecahydrobenzo[l][1,4,7,11,14]pentaazacyclooctadecine-2,6,9,12,15(3H)-pentaone] | 107.64 | 8.92 |
| COC[C@@H]1NC(=O)[C@H](C)N(Cc2c(OC)cccc2Oc2ccc(-c3cnc(CN(C)C)n3C)cc2)C(=O)C[C@@H](Cc2ccccc2)C(=O)N(C)[C@@H](C)CNC(=O)C[C@H](Cc2ccc(Cl)cc2)N(C)C1=O [Compound 154, (2S,5S,8S,13S,16R)-16-benzyl-8-(4-chlorobenzyl)-1-(2-(4-(2-((dimethylamino)methyl)-1-methyl-1H-imidazol-5-yl)phenoxy)-6-methoxybenzyl)-5-(methoxymethyl)-2,7,13,14-tetramethyl-1,4,7,11,14-pentaazacyclooctadecane-3,6,10,15,18-pentaone] | 80.05 | 8.29 |
| COC[C@@H]1NC(=O)[C@H](C)N(Cc2ccc(Cl)cc2Oc2ccc(-c3cnc(CN4CCCC4)n3C)cc2)C(=O)C[C@@H](Cc2cccc(F)c2)C(=O)N(C)[C@@H](C)CNC(=O)C[C@H](Cc2ccc(Cl)cc2)N(C)C1=O [Compound 155, (2S,5S,8S,13S,16R)-1-(4-chloro-2-(4-(1-methyl-2-(pyrrolidin-1-ylmethyl)-1H-imidazol-5-yl)phenoxy)benzyl)-8-(4-chlorobenzyl)-16-(3-fluorobenzyl)-5-(methoxymethyl)-2,7,13,14-tetramethyl-1,4,7,11,14-pentaazacyclooctadecane-3,6,10,15,18-pentaone] | 98.43 | 9.10 |
| COCC[C@H]1C(=O)N[C@@H](COC)C(=O)N(C)[C@@H](Cc2ccc(Cl)cc2)CC(=O)NC[C@H](C)N(C)C(=O)[C@H](Cc2ccccc2)CC(=O)N1Cc1ccc(Cl)cc1Oc1ccc(-c2cnc(CN(C)C)n2C)cc1 [Compound 156, (2S,5S,8S,13S,16R)-16-benzyl-1-(4-chloro-2-(4-(2-((dimethylamino)methyl)-1-methyl-1H-imidazol-5-yl)phenoxy)benzyl)-8-(4-chlorobenzyl)-2-(2-methoxyethyl)-5-(methoxymethyl)-7,13,14-trimethyl-1,4,7,11,14-pentaazacyclooctadecane-3,6,10,15,18-pentaone] | 108.38 | 8.43 |
| COC[C@@H]1NC(=O)[C@H](C)N(Cc2ccc(Cl)cc2Oc2ccc(-c3cnc(CN4CC5(COC5)C4)n3C)cc2)C(=O)C[C@@H](Cc2ccccc2)C(=O)N(C)[C@H]2CCCC[C@@H]2NC(=O)C[C@H](Cc2ccc(Cl)cc2)N(C)C1=O [Compound 157, (4S,7S,10S,14R,16aS,20aS)-11-(2-(4-(2-(2-oxa-6-azaspiro[3.3]heptan-6-ylmethyl)-1-methyl-1H-imidazol-5-yl)phenoxy)-4-chlorobenzyl)-14-benzyl-4-(4-chlorobenzyl)-7-(methoxymethyl)-5,10,16-trimethylhexadecahydrobenzo[l][1,4,7,11,14]pentaazacyclooctadecine-2,6,9,12,15(3H)-pentaone] | 89.28 | 8.74 |

More lines, now with the values ahead:

| Max % inhibition [%] | pIC50 | SMILES |
| --- | --- | --- |
| 98.98 | 8.85 | COC[C@@H]1NC(=O)[C@H](CCCN2CCOCC2)N(Cc2ccc(Cl)cc2Oc2ccc(-c3cnc(CN(C)C)n3C)cc2)C(=O)C[C@@H](Cc2ccccc2)C(=O)N(C)[C@@H](C)CNC(=O)C[C@H](Cc2ccc(Cl)cc2)N(C)C1=O [Compound 158, (2S,5S,8S,13S,16R)-16-benzyl-1-(4-chloro-2-(4-(2-((dimethylamino)methyl)-1-methyl-1H-imidazol-5-yl)phenoxy)benzyl)-8-(4-chlorobenzyl)-5-(methoxymethyl)-7,13,14-trimethyl-2-(3-morpholinopropyl)-1,4,7,11,14-pentaazacyclooctadecane-3,6,10,15,18-pentaone] |
| 55.26 | 7.13 | COC[C@@H]1NC(=O)[C@H](C)N(Cc2ccc(Cl)cc2Oc2ccc(-c3cnc(CN(C)C)n3C)cc2)C(=O)C[C@@H](OC)C(=O)N(C)[C@@H](C)CNC(=O)C[C@H](Cc2ccc(Cl)cc2)N(C)C1=O [Compound 159, (2S,5S,8S,13S,16R)-1-(4-chloro-2-(4-(2-((dimethylamino)methyl)-1-methyl-1H-imidazol-5-yl)phenoxy)benzyl)-8-(4-chlorobenzyl)-16-methoxy-5-(methoxymethyl)-2,7,13,14-tetramethyl-1,4,7,11,14-pentaazacyclooctadecane-3,6,10,15,18-pentaone] |
| 91.45 | 8.12 | C[C@H]1CNC(=O)C[C@H](Cc2ccc(Cl)cc2)N(C)C(=O)[C@H](CC(=O)N(C)C)NC(=O)[C@H](C)N(Cc2ccc(Cl)cc2Oc2ccc(-c3cnc(CN(C)C)n3C)cc2)C(=O)C[C@@H](Cc2ccccc2)C(=O)N1C [Compound 160, 2-((2S,5S,8S,13S,16R)-16-benzyl-1-(4-chloro-2-(4-(2-((dimethylamino)methyl)-1-methyl-1H-imidazol-5-yl)phenoxy)benzyl)-8-(4-chlorobenzyl)-2,7,13,14-tetramethyl-3,6,10,15,18-pentaoxo-1,4,7,11,14-pentaazacyclooctadecan-5-yl)-N,N-dimethylacetamide] |
| 92.62 | 7.83 | COC[C@@H]1NC(=O)[C@H](C)N(Cc2ccc(Cl)cc2Oc2ccc(-c3cnc(CN(C)C)n3C)cc2)C(=O)C[C@@H](C)C(=O)N(C)[C@@H](C)CNC(=O)C[C@H](Cc2ccc(Cl)cc2)N(C)C1=O [Compound 161, (2S,5S,8S,13S,16R)-1-(4-chloro-2-(4-(2-((dimethylamino)methyl)-1-methyl-1H-imidazol-5-yl)phenoxy)benzyl)-8-(4-chlorobenzyl)-5-(methoxymethyl)-2,7,13,14,16-pentamethyl-1,4,7,11,14-pentaazacyclooctadecane-3,6,10,15,18-pentaone] |
| 91.41 | 8.54 | COC[C@@H]1NC(=O)[C@H](C)N(Cc2ccc(Cl)cc2Oc2ccc(-c3cnc4n3CCN(C(=O)[C@H]3CCOC3)C4)cc2)C(=O)C[C@@H](Cc2ccccc2)C(=O)N(C)[C@@H](C)CNC(=O)C[C@H](Cc2ccc(Cl)cc2)N(C)C1=O [Compound 162, (2S,5S,8S,13S,16R)-16-benzyl-1-(4-chloro-2-(4-(7-((S)-tetrahydrofuran-3-carbonyl)-5,6,7,8-tetrahydroimidazo[1,2-a]pyrazin-3-yl)phenoxy)benzyl)-8-(4-chlorobenzyl)-5-(methoxymethyl)-2,7,13,14-tetramethyl-1,4,7,11,14-pentaazacyclooctadecane-3,6,10,15,18-pentaone] |
| 84.60 | 6.87 | COC[C@@H]1NC(=O)[C@H](C)N(Cc2ccc(Cl)cc2Oc2ccc(-n3cnc(C(=O)NC(C)C)c3C)cc2)C(=O)C[C@@H](Cc2ccccc2)C(=O)N(C)[C@@H](C)CNC(=O)C[C@H](Cc2ccc(Cl)cc2)N(C)C1=O [Compound 163, 1-(4-(2-(((2S,5S,8S,13S,16R)-16-benzyl-8-(4-chlorobenzyl)-5-(methoxymethyl)-2,7,13,14-tetramethyl-3,6,10,15,18-pentaoxo-1,4,7,11,14-pentaazacyclooctadecan-1-yl)methyl)-5-chlorophenoxy)phenyl)-N-isopropyl-5-methyl-1H-imidazole-4-carboxamide] |
| 80.18 | 8.44 | C[C@@H]1CC(=O)N(Cc2ccc(Cl)cc2Oc2ccc(-c3cnc(CN(C)C)n3C)cc2)[C@@H](C)C(=O)N[C@@H](CO)C(=O)N(C)[C@@H](Cc2ccc(Cl)cc2)CC(=O)N[C@H]2CCCC[C@@H]2N(C)C1=O [Compound 164, (4S,7S,10S,14R,16aS,20aS)-11-(4-chloro-2-(4-(2-((dimethylamino)methyl)-1-methyl-1H-imidazol-5-yl)phenoxy)benzyl)-4-(4-chlorobenzyl)-7-(hydroxymethyl)-5,10,14,16-tetramethylhexadecahydrobenzo[l][1,4,7,11,14]pentaazacyclooctadecine-2,6,9,12,15(3H)-pentaone] |
| 92.29 | 8.25 | COC[C@@H]1NC(=O)[C@H](C)N(Cc2ccc(Cl)cc2Oc2ccc(-c3cnc(CN4CCCC4)n3C)cc2)C(=O)C[C@@H](Cc2ccc(F)c(F)c2)C(=O)N(C)[C@@H](C)CNC(=O)C[C@H](Cc2ccc(Cl)cc2)N(C)C1=O [Compound 165, (2S,5S,8S,13S,16R)-1-(4-chloro-2-(4-(1-methyl-2-(pyrrolidin-1-ylmethyl)-1H-imidazol-5-yl)phenoxy)benzyl)-8-(4-chlorobenzyl)-16-(3,4-difluorobenzyl)-5-(methoxymethyl)-2,7,13,14-tetramethyl-1,4,7,11,14-pentaazacyclooctadecane-3,6,10,15,18-pentaone] |

Reference: US20230089867A1, “CYCLIC PENTAMER COMPOUNDS AS PROPROTEIN CONVERTASE SUBTILISIN/KEXIN TYPE 9 (PCSK9) INHIBITORS FOR THE TREATMENT OF METABOLIC DISORDER” (Novartis AG, priority 2018, published 2023)
